According to ChEMBL document CHEMBL1212811, “Chemical phylogenetics of histone deacetylases” (Nat Chem Biol, 2010):
Where a name gives a salt, the structure may show the parent alone. The source made the active and inactive calls. Peptide text beside a SMILES is read from it. * marks the point of attachment. AMC = Cc1cc(=O)oc2cc(N*)ccc12; Tfa = O=C(C(F)(F)F)*

Tests used:
[1] = molecular target: T1, Protein deacetylase HDAC6 (Homo sapiens) (UniProt Q9UBN7); experiment: Inhibition of HDAC6 in human Jurkat cells assessed as hyperacetylation of alpha-tubulin after 24 hrs by immunoblot method; type: cell-based
T1 sequence (whole entry): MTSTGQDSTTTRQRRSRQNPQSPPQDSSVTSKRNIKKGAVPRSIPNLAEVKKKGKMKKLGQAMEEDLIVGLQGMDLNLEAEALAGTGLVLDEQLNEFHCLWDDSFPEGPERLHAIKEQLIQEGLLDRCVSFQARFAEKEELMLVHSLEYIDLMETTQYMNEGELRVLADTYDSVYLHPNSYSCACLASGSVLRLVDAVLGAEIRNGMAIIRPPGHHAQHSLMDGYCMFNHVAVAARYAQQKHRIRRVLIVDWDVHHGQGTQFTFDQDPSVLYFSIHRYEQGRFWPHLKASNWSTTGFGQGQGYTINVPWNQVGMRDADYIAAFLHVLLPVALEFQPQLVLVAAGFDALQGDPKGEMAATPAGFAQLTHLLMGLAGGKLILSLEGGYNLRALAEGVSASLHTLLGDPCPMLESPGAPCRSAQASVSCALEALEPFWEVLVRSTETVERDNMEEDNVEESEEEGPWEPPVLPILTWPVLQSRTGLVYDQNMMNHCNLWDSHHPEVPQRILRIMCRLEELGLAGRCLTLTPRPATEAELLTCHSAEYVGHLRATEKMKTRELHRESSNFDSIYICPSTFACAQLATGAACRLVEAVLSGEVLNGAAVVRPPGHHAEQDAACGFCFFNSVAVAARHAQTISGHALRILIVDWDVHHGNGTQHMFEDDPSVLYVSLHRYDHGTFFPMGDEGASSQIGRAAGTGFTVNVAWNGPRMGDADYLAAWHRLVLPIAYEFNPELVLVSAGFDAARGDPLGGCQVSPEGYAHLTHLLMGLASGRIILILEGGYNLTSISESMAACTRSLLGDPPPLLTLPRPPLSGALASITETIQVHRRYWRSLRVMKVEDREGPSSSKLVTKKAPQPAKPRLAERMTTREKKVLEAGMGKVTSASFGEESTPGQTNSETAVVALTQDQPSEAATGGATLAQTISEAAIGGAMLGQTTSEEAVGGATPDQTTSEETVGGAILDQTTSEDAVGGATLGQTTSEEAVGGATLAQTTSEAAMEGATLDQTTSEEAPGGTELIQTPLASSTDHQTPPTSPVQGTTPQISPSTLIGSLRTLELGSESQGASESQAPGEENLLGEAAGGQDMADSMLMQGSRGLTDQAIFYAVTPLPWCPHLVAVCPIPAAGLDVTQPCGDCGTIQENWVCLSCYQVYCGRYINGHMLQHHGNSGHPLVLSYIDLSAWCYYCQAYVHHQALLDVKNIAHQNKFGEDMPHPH

[2] = molecular target: Histone deacetylase 4 (Homo sapiens) (UniProt P56524); experiment: Activity of HDAC4 at 10 uM
Histone deacetylase 4 (Homo sapiens), sequence (P56524 whole entry): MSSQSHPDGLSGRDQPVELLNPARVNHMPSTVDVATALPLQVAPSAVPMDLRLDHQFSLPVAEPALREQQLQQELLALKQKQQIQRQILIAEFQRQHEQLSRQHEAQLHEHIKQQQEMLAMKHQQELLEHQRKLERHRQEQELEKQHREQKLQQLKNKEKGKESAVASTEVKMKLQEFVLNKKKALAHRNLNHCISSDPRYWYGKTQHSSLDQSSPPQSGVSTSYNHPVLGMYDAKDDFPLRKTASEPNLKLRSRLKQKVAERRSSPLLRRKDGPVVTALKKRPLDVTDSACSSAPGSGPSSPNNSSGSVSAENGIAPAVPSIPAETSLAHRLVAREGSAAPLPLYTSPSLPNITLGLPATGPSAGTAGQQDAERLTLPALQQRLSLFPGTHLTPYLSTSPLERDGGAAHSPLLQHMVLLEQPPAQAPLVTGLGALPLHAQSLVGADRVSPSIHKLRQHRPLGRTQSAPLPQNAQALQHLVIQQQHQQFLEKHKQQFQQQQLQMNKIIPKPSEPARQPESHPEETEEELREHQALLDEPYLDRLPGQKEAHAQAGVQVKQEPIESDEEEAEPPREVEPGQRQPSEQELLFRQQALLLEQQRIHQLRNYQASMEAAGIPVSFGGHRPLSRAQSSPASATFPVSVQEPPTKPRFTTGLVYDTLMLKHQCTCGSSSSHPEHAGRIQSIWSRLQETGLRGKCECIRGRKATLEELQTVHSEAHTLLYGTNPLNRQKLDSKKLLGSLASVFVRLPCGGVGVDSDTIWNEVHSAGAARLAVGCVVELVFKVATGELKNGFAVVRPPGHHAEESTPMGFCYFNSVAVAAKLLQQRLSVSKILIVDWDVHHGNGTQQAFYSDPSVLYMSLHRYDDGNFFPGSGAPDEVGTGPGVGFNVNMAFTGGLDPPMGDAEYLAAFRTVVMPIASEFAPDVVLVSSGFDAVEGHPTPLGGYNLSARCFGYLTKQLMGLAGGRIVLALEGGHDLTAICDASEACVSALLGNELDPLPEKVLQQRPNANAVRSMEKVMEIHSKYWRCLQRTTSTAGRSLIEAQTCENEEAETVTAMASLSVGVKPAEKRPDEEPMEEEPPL

[3] = molecular target: Histone deacetylase 5 (Homo sapiens) (UniProt Q9UQL6); experiment: Activity of HDAC5 at 10 uM
Histone deacetylase 5 (Homo sapiens), sequence (Q9UQL6 whole entry): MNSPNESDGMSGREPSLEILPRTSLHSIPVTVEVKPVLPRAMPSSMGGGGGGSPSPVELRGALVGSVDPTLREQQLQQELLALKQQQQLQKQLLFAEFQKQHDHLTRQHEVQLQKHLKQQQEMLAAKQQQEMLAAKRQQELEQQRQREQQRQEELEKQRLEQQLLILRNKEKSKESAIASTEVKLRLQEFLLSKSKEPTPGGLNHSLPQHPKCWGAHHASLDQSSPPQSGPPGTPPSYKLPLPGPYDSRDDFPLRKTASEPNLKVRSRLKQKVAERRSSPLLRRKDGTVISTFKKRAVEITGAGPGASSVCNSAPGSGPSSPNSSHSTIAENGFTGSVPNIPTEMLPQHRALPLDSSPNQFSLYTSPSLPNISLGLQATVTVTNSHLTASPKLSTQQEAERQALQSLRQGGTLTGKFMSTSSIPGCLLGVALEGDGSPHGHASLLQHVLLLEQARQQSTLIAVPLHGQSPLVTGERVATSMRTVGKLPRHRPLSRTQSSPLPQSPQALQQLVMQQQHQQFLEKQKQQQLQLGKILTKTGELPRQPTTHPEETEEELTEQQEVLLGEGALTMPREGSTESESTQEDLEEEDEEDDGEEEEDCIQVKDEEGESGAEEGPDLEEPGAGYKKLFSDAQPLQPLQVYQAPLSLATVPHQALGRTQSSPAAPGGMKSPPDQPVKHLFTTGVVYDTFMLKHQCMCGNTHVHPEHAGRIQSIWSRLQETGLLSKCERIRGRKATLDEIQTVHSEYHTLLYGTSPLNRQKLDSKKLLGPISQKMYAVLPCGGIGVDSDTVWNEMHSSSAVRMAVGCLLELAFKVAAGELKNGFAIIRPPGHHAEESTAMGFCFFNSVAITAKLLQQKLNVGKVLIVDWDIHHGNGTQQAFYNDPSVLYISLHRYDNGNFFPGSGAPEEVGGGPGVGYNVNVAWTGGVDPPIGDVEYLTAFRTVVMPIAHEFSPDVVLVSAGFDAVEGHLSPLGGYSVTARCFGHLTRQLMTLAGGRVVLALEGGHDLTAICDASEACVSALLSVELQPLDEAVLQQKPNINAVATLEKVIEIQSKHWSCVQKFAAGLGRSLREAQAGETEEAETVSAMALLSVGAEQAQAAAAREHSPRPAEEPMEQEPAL

[4] = molecular target: T2, Histone deacetylase 7 (Homo sapiens) (UniProt Q8WUI4); experiment: Activity of HDAC7 at 10 uM
T2 sequence (whole entry): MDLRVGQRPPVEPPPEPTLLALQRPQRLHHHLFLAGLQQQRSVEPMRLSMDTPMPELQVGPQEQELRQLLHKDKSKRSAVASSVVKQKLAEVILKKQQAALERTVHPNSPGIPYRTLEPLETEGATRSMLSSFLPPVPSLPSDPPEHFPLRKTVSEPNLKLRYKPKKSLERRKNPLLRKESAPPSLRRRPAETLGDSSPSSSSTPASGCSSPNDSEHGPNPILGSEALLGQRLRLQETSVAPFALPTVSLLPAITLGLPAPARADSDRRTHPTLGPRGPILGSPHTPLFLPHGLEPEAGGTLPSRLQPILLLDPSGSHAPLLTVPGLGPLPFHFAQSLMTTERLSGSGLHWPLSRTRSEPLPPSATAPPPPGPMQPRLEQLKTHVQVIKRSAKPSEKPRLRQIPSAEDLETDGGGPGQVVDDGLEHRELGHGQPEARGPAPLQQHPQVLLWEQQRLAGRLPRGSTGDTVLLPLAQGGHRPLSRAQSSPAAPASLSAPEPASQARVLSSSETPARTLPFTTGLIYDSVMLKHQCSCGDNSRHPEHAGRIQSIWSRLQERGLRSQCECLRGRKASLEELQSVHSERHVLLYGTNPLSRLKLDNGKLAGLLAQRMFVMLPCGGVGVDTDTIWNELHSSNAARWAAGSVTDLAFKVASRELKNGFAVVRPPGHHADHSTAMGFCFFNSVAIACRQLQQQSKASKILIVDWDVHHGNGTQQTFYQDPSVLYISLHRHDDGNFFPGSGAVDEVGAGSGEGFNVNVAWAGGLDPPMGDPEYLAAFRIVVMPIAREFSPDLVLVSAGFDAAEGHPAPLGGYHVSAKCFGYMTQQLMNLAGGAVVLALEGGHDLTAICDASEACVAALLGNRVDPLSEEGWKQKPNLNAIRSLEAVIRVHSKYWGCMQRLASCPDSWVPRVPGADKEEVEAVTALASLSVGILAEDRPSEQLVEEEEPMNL

[5] = molecular target: T3, Histone deacetylase 8 (Homo sapiens) (UniProt Q9BY41); experiment: Activity of HDAC8 at 10 uM
T3 sequence (whole entry): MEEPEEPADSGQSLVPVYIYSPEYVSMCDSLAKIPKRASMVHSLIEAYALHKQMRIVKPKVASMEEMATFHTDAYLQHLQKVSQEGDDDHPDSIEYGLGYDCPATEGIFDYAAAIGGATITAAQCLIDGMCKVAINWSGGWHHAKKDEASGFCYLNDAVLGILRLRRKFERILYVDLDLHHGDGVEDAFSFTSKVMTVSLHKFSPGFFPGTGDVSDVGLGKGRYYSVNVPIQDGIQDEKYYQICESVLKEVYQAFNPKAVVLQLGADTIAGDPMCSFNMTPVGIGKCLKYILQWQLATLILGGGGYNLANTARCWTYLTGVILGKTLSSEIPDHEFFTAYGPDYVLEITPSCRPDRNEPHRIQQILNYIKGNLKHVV

[6] = molecular target: Histone deacetylase 9 (Homo sapiens) (UniProt Q9UKV0); experiment: Activity of HDAC9 at 10 uM
Histone deacetylase 9 (Homo sapiens), sequence (Q9UKV0 whole entry): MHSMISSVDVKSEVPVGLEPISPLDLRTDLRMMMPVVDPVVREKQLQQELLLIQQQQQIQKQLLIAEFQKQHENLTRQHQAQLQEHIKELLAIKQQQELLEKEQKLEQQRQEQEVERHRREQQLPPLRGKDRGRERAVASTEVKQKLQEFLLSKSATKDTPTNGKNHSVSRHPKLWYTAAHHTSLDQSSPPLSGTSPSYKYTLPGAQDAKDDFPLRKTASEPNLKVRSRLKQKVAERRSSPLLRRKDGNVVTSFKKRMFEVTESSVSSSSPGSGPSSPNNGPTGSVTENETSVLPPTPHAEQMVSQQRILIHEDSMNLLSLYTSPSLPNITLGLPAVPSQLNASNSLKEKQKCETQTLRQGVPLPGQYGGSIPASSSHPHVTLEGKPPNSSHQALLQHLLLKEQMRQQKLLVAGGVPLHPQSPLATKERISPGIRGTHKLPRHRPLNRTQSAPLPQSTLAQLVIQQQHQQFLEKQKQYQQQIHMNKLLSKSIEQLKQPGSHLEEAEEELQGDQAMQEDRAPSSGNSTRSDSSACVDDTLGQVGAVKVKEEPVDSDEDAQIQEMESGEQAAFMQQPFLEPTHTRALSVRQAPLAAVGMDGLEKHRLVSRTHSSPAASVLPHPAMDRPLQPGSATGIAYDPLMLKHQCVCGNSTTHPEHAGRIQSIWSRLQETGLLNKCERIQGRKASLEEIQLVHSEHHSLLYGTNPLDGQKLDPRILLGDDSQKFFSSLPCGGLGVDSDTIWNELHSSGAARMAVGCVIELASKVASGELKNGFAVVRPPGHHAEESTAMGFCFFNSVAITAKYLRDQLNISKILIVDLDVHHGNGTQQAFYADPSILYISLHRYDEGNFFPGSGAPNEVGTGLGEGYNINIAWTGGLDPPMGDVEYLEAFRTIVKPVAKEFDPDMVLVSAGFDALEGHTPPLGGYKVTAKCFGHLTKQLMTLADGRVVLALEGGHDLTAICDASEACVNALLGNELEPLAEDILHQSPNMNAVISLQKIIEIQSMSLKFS

O=C(/C=C/c1ccc(C(=O)N/N=C/c2ccc(O)c(O)c2O)cc1)NO
active: inhibition [1] Dose-dependent effect

CC(=O)N[C@@H](CC(C)C)C(=O)NCC(=O)N[C@@H](CCCCNC(=O)C(F)(F)F)C(=O)Nc1ccc2c(C)cc(=O)oc2c1 (Ac-Leu-Gly-Lys(Tfa)-{AMC})
active: Activity [2] | Activity [3] | Activity [4] | Activity [5] | Activity [6]
